Legend:
[1] = test system: cardiac PW1+ cells in PW1nLacZ-reporter mouse post-MI hearts; test: Short-term lineage tracing of cardiac PW1+ cells in post-MI heart sections; assay type: in vivo; conditions: cardiac sections of post-MI (7 days) hearts, vs vehicle
Procedure: Male 8 weeks-old C57BL/6 or PW1-reporter (PW1^nLacZ) mice were anesthetized in an induction chamber with 2% isoflurane mixed with 1.0 L/min 100% 02 and placed on a supine position on a heating pad to maintain body temperature. The mice were intubated with endotracheal tube and then connected to a rodent ventilator (180 breaths/min and a tidal volume of 200 μl). During surgical procedure anesthesia is maintained at 1.5-2% isoflurane with O2. The chest was accessed from the left side through the intercostal space and the pericardium incised. The left anterior descending coronary artery (LAD) was exposed and encircled with a 8.0 prolene suture at the apex of the left ventricle. The suture was briefly snared to confirm the ligation by blanching the arterial region. Mice were analyzed 7 days after LAD permanent ligation.
Male C57BL/6J mice (Janvier labs) or PW1-reporter (PW1^nLacZ) mice received Cilengitide at 10 mg/kg/day (Adooq bioscience, ref: A12372) or vehicle i.p. for 14 days. LAD surgery was performed 7 days after starting cilengitide or vehicle administration. Mice were divided in 4 groups: MI-CIL (Cilengitide), MI-Veh (vehicle), Ctrl-CIL and Ctrl-Veh. […]

[2] = test system: mice subjected to MI via a complete LAD ligation; test: Myocardial infarction by LAD ligation, cilengitide vs vehicle; assay type: in vivo, mouse
[3] = test system: FACS-isolated cardiac PW1+ cells; test: Pharmacological inhibition of PW1+ cells in vitro, Q-PCR on fibrosis markers; assay type: cell-based, mouse; conditions: cilengitide 300 nM, 1000 nM vs vehicle, treated for 48 h
Procedure: Animals were injected with heparin (100 UI/25 g) before euthanasia. The right atrium was carefully nicked with surgical scissors and the heart was perfused with 10 mL of PBS (Gibco) through the right ventricle to remove the blood. After collecting the heart, the atria were trimmed away and the ventricles were finely sliced (0.5-1 mm^3). Cardiac cells were dissociated at 37° C. for 30 min by enzymatic digestion with 480 U/mL collagenase II (Worthington) in DPBS (GIBCO). The digestion was stopped with DMEM (Life Technologies) supplemented into 10% FBS (Sigma) and 1% penicillin/streptomycin (P/S; Life Technologies) and the cell suspension was filtered through 100 μm Falcon cell strainer before centrifugation at 416 g for 10 min at 4° C. The cell pellet was re-suspended in 500 μL of Red Blood Cell Lysing (RBCL) Buffer to lyse red blood cells at RT for 30 sec. DPBS was added before 10 min centrifugation in same conditions as above. The cell pellet was then re-suspended in 300 μL of HBSS (Gibco) containing 1% FBS (HBSS-1% FBS) to perform immunostaining for 45 min on ice in dark. The list of antibodies used is reported in supplemental table 1. After incubation, HBSS-1% FBS was added and cells centrifuged at 416 g for 10 min at 4° C. to perform PW1+ cells staining. For this, 300 μL of HBSS-1% FBS containing 60 μM of 5-Dodecanoylaminofluorescein Di-β-D-Galactopyranoside (C12FDG, ThermoFisher Scientific) a substrate for β-gal detection by flow cytometry was added on cells then incubated in dark at 37° C. for 1 h under constant agitation. Reaction was stopped by the addition of HBSS-1% FBS. After cell centrifugation, the pellet was re-suspended in 200 μL of HBSS-1% FBS, the viability dye propidium iodide (Sigma) was added and the samples were filtered through a 50 μm Filcon (BD bioscience) just before the analysis.
FACS sorted PW1^+ or PW1^− cells were plated at the density of 25 000 cell per cm^2 in culture plates coated with attachment factor (ThermoFisher Scientific). Cells were left to adhere overnight with 0.5 mL of growth medium (DMEM 10% FBS 1% P/S). The culture medium was changed the day after. At day 5, culture media was changed and supplemented with 0, 300 nM, or 1 μM of cilengitide. At day 6, medium was removed, and cells were washed twice with PBS. Cells were then lysed and RNA extracted followed by an RT-PCR. A Q-PCR was finally performed on selected fibrosis markers.
To test this hypothesis, we first investigated whether CD51 pharmacological inhibition affects the expression of profibrotic genes in freshly FACS-isolated cardiac PW1^+ cells. These cells were seeded and cultured for 4 days and then treated for 48 h with growing concentrations of cilengitide or vehicle. […]

[4] = test system: integrin αV, including αVβ1, αVβ3 and αVβ5; conditions: cited from earlier work
[5] = sham animals (no MI), cilengitide 10 mg/kg/day i.p., data not shown

## CC(C)[C@H]1C(=O)N[C@@H](CCCN=C(N)N)C(=O)NCC(=O)N[C@@H](CC(=O)O)C(=O)N[C@H](Cc2ccccc2)C(=O)N1C [cilengitide, 2-[(2S,5R,8S,11S)-5-benzyl-11-{3-[(diaminomethylidene)amino]propyl}-7-methyl-3,6,9,12,15-pentaoxo-8-(propan-2-yl)-1,4,7,10,13-pentaazacyclopentadecan-2-yl]acetic acid]
[1]; p<0.001
  number of β-gal+ cells that did not express vimentin: significant increase
[1]; p<0.05
  proportion of cells co-expressing β-gal and vimentin: significant reduction
[2]; 7 days after MI, cilengitide 10 mg/kg/day i.p. for 14 days, started 7 days before LAD ligation, vs vehicle, p<0.05 log-rank
  survival: significant improvement
[2]; 7 days after MI, cilengitide 10 mg/kg/day i.p., vs vehicle
  cardiac function as measured by left ventricular ejection fraction: significant increase
[2]; 7 days after MI, masson trichrome, digital image quantification, 10 mg/kg/day i.p., vehicle 56.8±14.9%, p=0.0008
  infarct size: 38.8±7.9%
[2]; 7 days after MI, picrosirius red, 10 mg/kg/day i.p., vehicle 36.8±13.1%, p<0.0001
  interstitial fibrosis measured in the remote myocardial area: 15.9±10.4%
[2]; post-MI mice under cilengitide treatment
  cardiac rupture (adverse outcome): did not observe
[2]; [5]
  cardiac fibrosis in sham animals: not associated with any changes
  cardiac function in sham animals: not associated with any changes
  survival in sham animals: not associated with any changes
[3]
  Colla1 expression: not affected
  aSma (or Acta2) expression: significant down-regulation
  mmp2 expression: significant down-regulation
  tgfrb1 expression: significant down-regulation
[4]
  inhibiting activity against the integrin αV: strong inhibiting activity
